Experimental findings from patent US9642889B2, “Macrocyclic inhibitors of Flaviviridae viruses” (Selcia Limited, priority 2012, dated 2017) are described below.

For data set [1] the following is noted: rcm bond; 22-membered ring; Hoveyda-Grubbs II; 1,2-dichloroethane; 3.01 mM; 80.0 °C; 2 steps.
Data set [2] deals with Huh-7 HCV replicon cells (1b replicon). The data set is described as follows: anti-HCV activity in Huh-7 cell line harboring a HCV replicon (luciferase readout). Format: cell-based. The settings on record: Hepatitis C virus; for EC50: Huh-7, 72 h, inhibition of viral replication, Huh-7 HCV replicon cells, 3 days, read-out: EC50; for inhibition at 1 µM: Huh-7, read-out: Replicon 1b % inhibition at 1 μM, 1b replicon, 1 μM compound. Background: Replicon systems follow genome replication, usually without infectious particles.

A further data set deals with cyclophilin A (Homo sapiens, UniProt P62937). In words: Cyclophilin A TR-FRET competitive binding assay. The following applies: competition with CsA-Cy5 for His-tagged CypA, two-hour incubation. How it is done: Cyclophilin A TR-FRET Competitive Binding Assay
Sequence of cyclophilin A (P62937 whole entry, species assumed): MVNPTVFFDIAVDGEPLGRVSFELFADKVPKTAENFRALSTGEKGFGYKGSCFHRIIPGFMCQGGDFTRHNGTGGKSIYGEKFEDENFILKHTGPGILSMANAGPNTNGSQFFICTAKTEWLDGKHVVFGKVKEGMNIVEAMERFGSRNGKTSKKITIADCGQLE
Inhibitor potency was measured using a competitive binding assay with a time-resolved fluorescence resonance energy transfer (TR-FRET) readout. […] An IC50 value was calculated using a four-parameter logistic fit.
On the technique in general: TR-FRET usually uses a lanthanide donor and a delayed reading to cut background.

For data set [3] the following is noted: rcm bond; 22-membered ring; Hoveyda-Grubbs II; 1,2-dichloroethane; 80.0 °C.

The structures appear in SMILES notation. Where two headings read alike, the source gives them in different places.

The compound `CO[C@H]1CC[C@@]2(/C=C/c3ccc4ccc(nc4c3)[C@@H](C)NC(=O)[C@@H]3CCCN(N3)C(=O)[C@H](C)NC(=O)[C@H](C(C)C)OC2=O)CC1` had a ring closure, yield of all isomers (from CO[C@H]1CC[C@](/C=C/c2ccc3ccc([C@@H](C)N)nc3c2)(C(=O)O[C@H](C(=O)N[C@@H](C)C(=O)N2CCC[C@@H](C(=O)O)N2)C(C)C)CC1, amide bond, HATU/DIPEA, DCM, 4 steps) of 6.2%.
As to `CC(C)[C@@H]1OC(=O)[C@H](C)C=Cc2cc3cc(ccc3cn2)[C@@H](C)NC(=O)[C@@H]2CCCN(N2)C(=O)[C@H](C)NC1=O`, the ring closure, yield of all isomers (from C=Cc1cc2cc([C@@H](C)NC(=O)[C@@H]3CCCN(C(=O)[C@H](C)NC(=O)[C@@H](OC(=O)[C@H](C)/C=C/C)C(C)C)N3)ccc2cn1, rcm bond, Hoveyda-Grubbs 2nd generation, toluene, 2.99 mM, 125.0 °C, 5.75 h) is 1%.
`CC(C)[C@@H]1OC(=O)C(C)(C)CC=Cc2cc3cc(ccc3cn2)[C@@H](C)NC(=O)[C@@H]2CCCN(N2)C(=O)[C@H](C)NC1=O` came in with a ring closure, yield of all isomers (from C=CCC(C)(C)C(=O)O[C@H](C(=O)N[C@@H](C)C(=O)N1CCC[C@@H](C(=O)N[C@H](C)c2ccc3cnc(C=C)cc3c2)N1)C(C)C, rcm bond, Hoveyda-Grubbs 2nd generation catalyst, toluene, 3.08 mM, 110.0 °C, 3.0 h) of 15%.
Take `CC(C)[C@@H]1OCCCC=Cc2cc3cc(ccc3cn2)[C@@H](C)OC(=O)[C@@H]2CCCN(N2)C(=O)[C@H](C)NC1=O`: where the note is “from C=CCCCO[C@H](C(=O)N[C@@H](C)C(=O)N1CCC[C@@H](C(=O)O[C@H](C)c2ccc3cnc(C=C)cc3c2)N1)C(C)C, rcm bond, Hoveyda-Grubbs 2nd Generation Catalyst, toluene, 3.0 mM, 100.0 °C, 0.58 h”, the ring closure, yield of all isomers was 35%.
`CO[C@@H]1CCC=Cc2cccc(c2)[C@@H](C)NC(=O)[C@@H]2CCCN(N2)C(=O)[C@H](C)NC(=O)[C@H](C(C)C)OC(=O)[C@@H]1C`: under “from C=CCC[C@@H](OC)[C@@H](C)C(=O)O[C@H](C(=O)N[C@@H](C)C(=O)N1CCC[C@@H](C(=O)N[C@H](C)c2cccc(C=C)c2)N1)C(C)C, rcm bond, Hoveyda-Grubbs 2nd generation, 1,2-dichloroethane, 2.96 mM, 85.0 °C, 5.0 h”, the ring closure, yield of all isomers turned out to be 32%.
In the case of `CC(C)[C@@H]1OC(=O)[C@H](C)[C@H](O[Si](C)(C)C(C)(C)C)CC/C=C/c2cccc(c2)[C@@H](C)NC(=O)[C@@H]2CCCN(N2)C(=O)[C@H](C)NC1=O`, the ring closure, isolated yield in data set [1] was found to be 16%. For the same compound, the ring closure, yield of all isomers (from C=CCC[C@@H](O[Si](C)(C)C(C)(C)C)[C@@H](C)C(=O)O[C@H](C(=O)N[C@@H](C)C(=O)N1CCC[C@@H](C(=O)N[C@H](C)c2cccc(C=C)c2)N1)C(C)C, rcm bond, Hoveyda-Grubbs 2nd generation catalyst, 1,2-dichloroethane, 3.01 mM, 80.0 °C, 2.0 h, 2 steps) turned out to be 16%.
Regarding `CO[C@@H]1C=Cc2cc3cc(ccc3cn2)[C@@H](C)NC(=O)[C@@H]2CCCN(N2)C(=O)[C@H](C)NC(=O)[C@H](C(C)C)OC(=O)[C@@H]1C`, the ring closure, yield of all isomers (from C=Cc1cc2cc([C@@H](C)NC(=O)[C@@H]3CCCN(C(=O)[C@H](C)NC(=O)[C@@H](OC(=O)[C@H](C)[C@@H](/C=C/C)OC)C(C)C)N3)ccc2cn1, rcm bond, Hoveyda-Grubbs 2nd generation, toluene, 2.98 mM, 125.0 °C, 6.0 h) is 1%.
In the case of `CC(C)[C@H]1C(=O)N[C@@H](C)C(=O)N2CCC[C@H](N2)C(=O)N[C@H](C)c2cccc(c2)/C=C/CCCCC(=O)N1C` [Compound 17, (E)-(2R,5S,11 S,14S)-14-Isopropyl-2,11,15-trimethyl-3,9,12,15,28-pentaaza-tricyclo[21.3.1.1*5,9*]octacosa-1 (27),21,23,25-tetraene-4,10,13,16-tetraone], the ring closure, yield of all isomers (from C=CCCCCC(=O)N(C)[C@H](C(=O)N[C@@H](C)C(=O)N1CCC[C@@H](C(=O)N[C@H](C)c2cccc(C=C)c2)N1)C(C)C, rcm bond, Hoveyda-Grubbs 2nd generation catalyst, 1,2-dichloroethane, 3.33 mM, 80.0 °C, 3.0 h) was found to be 43%. In data set [2], the EC50 (commonly the concentration at which the effect is half-maximal) was in the range of 1.1 to 10 µM and the inhibition – broadly, how much of the control response was suppressed – at 1 µM is 39%. For the same compound, the concentration for half-maximal inhibition (IC50) (commonly the concentration that inhibits the measured activity by half) on cyclophilin A lay within 0.101 to 1 µM.
On to `CO[C@@H]1/C=C/c2cc3cc(ccc3cn2)[C@@H](C)NC(=O)[C@@H]2CCCN(N2)C(=O)[C@H](C)NC(=O)[C@H](C(C)C)OC(=O)[C@@H]1C` [Compound 2], for which, in data set [2], the EC50 was under 1 µM and the inhibition at 1 µM worked out at 98%. The compound also displayed an IC50 on cyclophilin A of under 0.1 µM.
The matching figures for `CC(=O)O[C@H]1CC[C@@]2(/C=C/c3ccc4ccc(nc4c3)[C@@H](C)NC(=O)[C@@H]3CCCN(N3)C(=O)[C@H](C)NC(=O)[C@H](C(C)C)OC2=O)CC1` [Compound 110]: under 1 µM, 100% and under 0.1 µM.
The matching figures for `CC(C)[C@@H]1OC(=O)C2(/C=C/c3ccc4ccc(nc4c3)[C@@H](C)NC(=O)[C@]3(C)CCCN(N3)C(=O)[C@H](C)NC1=O)CCC(O)CC2` (mixture of isomers) [Compound 94]: under 1 µM, 94% and under 0.1 µM.
Take `CCC[C@@H]1CC=Cc2cc3cc(ccc3cn2)[C@@H](C)NC(=O)[C@@H]2CCCN(N2)C(=O)[C@H](C)NC(=O)[C@H](C(C)C)OC1=O`: the ring closure, yield of all isomers (from C=CC[C@@H](CCC)C(=O)O[C@H](C(=O)N[C@@H](C)C(=O)N1CCC[C@@H](C(=O)N[C@H](C)c2ccc3cnc(C=C)cc3c2)N1)C(C)C, rcm bond, Hoveyda-Grubbs 2nd generation, toluene, 3.02 mM, 110.0 °C, 3.5 h) worked out at 6%.
For the compound `CO[C@@H](C)[C@@H]1OC(=O)C(C)(C)/C=C/c2ccc3ccc(nc3c2)[C@@H](C)NC(=O)[C@@H]2CCCN(N2)C(=O)[C@H](C)NC1=O` [Compound 54], in data set [2], the EC50 was under 1 µM and the inhibition at 1 µM was 77%. This compound also showed an IC50 at cyclophilin A of 0.101 to 1 µM.
The matching figures for `CON=C1CCC2(/C=C/c3ccc4ccc(nc4c3)[C@@H](C)NC(=O)[C@@H]3CCCN(N3)C(=O)[C@H](C)NC(=O)[C@H](C(C)C)OC2=O)CC1` (stereo partly drawn) [Compound 83]: under 1 µM, 100% and under 0.1 µM.
Compound `CC(C)[C@@H]1NS(=O)(=O)CC=Cc2cc3cc(ccc3cn2)[C@@H](C)OC(=O)[C@@H]2CCCN(N2)C(=O)[C@H](C)NC1=O` registered a ring closure, yield of all isomers (from C=CCS(=O)(=O)N[C@H](C(=O)N[C@@H](C)C(=O)N1CCC[C@@H](C(=O)O[C@H](C)c2ccc3cnc(C=C)cc3c2)N1)C(C)C, rcm bond, Hoveyda-Grubbs 2nd Generation Catalyst, toluene, 5.0 mM, 110.0 °C, 2.0 h) of 13%.
Take `CC(C)[C@@H]1NCCCC=Cc2cc3cc(ccc3cn2)[C@@H](C)OC(=O)[C@@H]2CCCN(N2)C(=O)[C@H](C)NC1=O`: for the setting “from C=CCCCN[C@H](C(=O)N[C@@H](C)C(=O)N1CCC[C@@H](C(=O)O[C@H](C)c2ccc3cnc(C=C)cc3c2)N1)C(C)C, rcm bond, Hoveyda-Grubbs 2nd generation catalyst, toluene, 2.97 mM, 110.0 °C, 1.25 h”, the ring closure, yield of all isomers worked out at 56%.
Turning to `CC(C)[C@@H]1OC(=O)CC=Cc2cc3cc(ccc3cn2)[C@@H](C)NC(=O)[C@@H]2CCCN(N2)C(=O)[C@H](C)NC1=O`, the ring closure, yield of all isomers (from C=CCC(=O)O[C@H](C(=O)N[C@@H](C)C(=O)N1CCC[C@@H](C(=O)N[C@H](C)c2ccc3cnc(C=C)cc3c2)N1)C(C)C, rcm bond, Hoveyda-Grubbs 2nd generation, toluene, 2.83 mM, 110.0 °C, 5.0 h) stood at 1%.
As to `CC(C)[C@@H]1OC(=O)[C@H](C)[C@H](O)CCCCc2cccc(c2)[C@@H](C)NC(=O)[C@@H]2CCCN(N2)C(=O)[C@H](C)NC1=O` [Compound 10, (2R,5S,11S,14S,17R,18R)-18-Hydroxy-14-isopropyl-2,11,17-trimethyl-15-oxa-3,9,12,28-tetraaza-tricyclo[21.3.1.1*5,9*]octacosa-1(26),23(27),24-triene-4,10,13,16-tetraone], in data set [2], the EC50 was under 1 µM and the inhibition at 1 µM was 92%. The IC50 on cyclophilin A was under 0.1 µM.
The matching figures for `CC(C)[C@@H]1OCCC/C=C/c2cc3cc(ccc3cn2)[C@@H](C)OC(=O)[C@@H]2CCCN(N2)C(=O)[C@H](C)NC1=O` [Compound 23]: under 1 µM, 97% and under 0.1 µM.
The matching figures for `C[C@@H]1NC(=O)[C@H](C(C)(C)C)OC(=O)C(C)(C)/C=C/c2ccc3ccc(nc3c2)[C@@H](C)NC(=O)[C@@H]2CCCN(N2)C1=O` [Compound 70]: under 1 µM, 57% and 1 to 10 µM.
Turning to `CC(C)[C@@H]1OC(=O)CCCC/C=C/c2cccc(c2)[C@@H](C)NC(=O)[C@@H]2CCCN(N2)C(=O)[C@H](C)NC1=O` [Compound 8, (E)-(2R,5S,11S,14S)-14-Isopropyl-2,11-dimethyl-15-oxa-3,9,12,28-tetraaza-tricyclo[21.3.1.1*5,9*]octacosa-1 (27),21,23,25-tetraene-4,10,13,16-tetraone], the ring closure, yield after HPLC in data set [3] was 15%. The compound further had a ring closure, yield of all isomers (from C=CCCCCC(=O)O[C@H](C(=O)N[C@@H](C)C(=O)N1CCC[C@@H](C(=O)N[C@H](C)c2cccc(C=C)c2)N1)C(C)C, rcm bond, Hoveyda-Grubbs 2nd generation catalyst, 1,2-dichloroethane, 80.0 °C, 2.3 h) of 15%. For the same compound, in data set [2], the concentration giving a half-maximal response (EC50) is under 1 µM and the inhibition at 1 µM amounted to 95%. The compound also had an IC50 at cyclophilin A of under 0.1 µM.
Turning to `C[C@@H]1NC(=O)[C@H](C2CCC2)OC(=O)C(C)(C)/C=C/c2ccc3ccc(nc3c2)[C@@H](C)NC(=O)[C@@H]2CCCN(N2)C1=O` [Compound 52], in data set [2], the EC50 is under 1 µM and the inhibition at 1 µM amounted to 100%. For the same compound, the half-inhibitory concentration (IC50) on cyclophilin A was under 0.1 µM.
The matching figures for `CC(C)[C@@H]1OC(=O)C2(/C=C/c3ccc4ccc(nc4c3)[C@@H](C)NC(=O)[C@@H]3CCCN(N3)C(=O)[C@H](C)NC1=O)CCN(S(C)(=O)=O)CC2` [Compound 85]: under 1 µM, 98% and under 0.1 µM.
